ChEMBL document CHEMBL1130925, “Anti-AIDS agents. 33. Synthesis and anti-HIV activity of mono-methyl substituted 3',4'-di-O-(-)-camphanoyl-(+)-cis-khellactone (DCK) analogues” (Bioorg Med Chem Lett, 1998)

Tests used:
[1] = tested on: H9; test: Compound was evaluated for anti-HIV activity and the concentration that inhibits uninfected H9 cell growth by 50%; format: functional, cell-based; conditions: Homo sapiens
[2] = tested on: H9; test: Compound was evaluated for anti-HIV activity in acutely infected H9 Lymphocytes; format: functional, cell-based; conditions: Homo sapiens
[3] = Compound was tested for anti HIV activity by measuring therapeutic index in H9 lymphocytes; IC50/EC50; format: organism-based; conditions: human immunodeficiency virus, H9 lymphocytes infected with HIV; read-out: TI

## Cc1cc2c(c3oc(=O)ccc13)[C@@H](OC(=O)C13CCC(C)(C(=O)O1)C3(C)C)[C@@H](OC(=O)C13CCC(C)(C(=O)O1)C3(C)C)C(C)(C)O2 (stereo not given in full)
[1]
  IC50: > 157000 nM
[2]
  EC50: 0.000423 nM

## CC1(C)Oc2ccc3ccc(=O)oc3c2[C@@H](OC(=O)C23CCC(C)(C(=O)O2)C3(C)C)[C@H]1OC(=O)C12CCC(C)(C(=O)O1)C2(C)C (stereo not given in full)
[3]
  selectivity ratio: 137000

## Cc1cc2ccc(=O)oc2c2c1OC(C)(C)[C@H](OC(=O)C13CCC(C)(C(=O)O1)C3(C)C)[C@@H]2OC(=O)C12CCC(C)(C(=O)O1)C2(C)C (stereo not given in full)
[1]
  IC50: 33000 nM
[2]
  EC50: 150 nM
[3]
  selectivity ratio: 220

## Cc1cc(=O)oc2c3c(ccc12)OC(C)(C)[C@H](OC(=O)C12CCC(C)(C(=O)O1)C2(C)C)[C@@H]3OC(=O)C12CCC(C)(C(=O)O1)C2(C)C (stereo not given in full)
[1]
  IC50: > 157000 nM
[2]
  EC50: 0.000157 nM

## Cc1cc2ccc3c(c2oc1=O)[C@@H](OC(=O)C12CCC(C)(C(=O)O1)C2(C)C)[C@@H](OC(=O)C12CCC(C)(C(=O)O1)C2(C)C)C(C)(C)O3 (stereo not given in full)
[1]
  IC50: > 157000 nM
[2]
  EC50: 0.000157 nM
